Test [1] has as its system OM-10.1 cells (HIV-1 activation). The settings on record: poster Nov. 3-7 1991; cited from earlier work.
In a further test the test system is HIV-infected cells. To be noted: Hamamoto et al. 1989; cited from earlier work.
In another test the test system is OM-10.1 cells. Nature of the test: Return to latency of TNF-α pre-activated OM-10.1 cells, percent CD4-positive cells by flow cytometry (Example 2). The class given is cell-based. On the procedure:
Moreover, in Example 2 the experiment was extended through 96 hours after the removal of TNF-α.
For orientation: Flow cytometry measures light scatter and fluorescence of single cells or particles in a stream.

For test [2], the system named is OM-10.1 cells (HIV-1 activation). Nature of the test: Supernatant reverse transcriptase activity / HIV-1 activation in OM-10.1 cultures pretreated with test compound then TNF-α induced (Example 1). Type of test: cell-based. The settings on record: for stimulation index (SI) value of the reverse transcriptase activity: TNF-α treated vs non-TNF-α medium culture. From the text: The cellular pathways involved in mediating the activating signal from the plasma membrane to the integrated virus, resulting in HIV-1 expression, are much less clear. Recently, the development of a reliable and simple system for evaluating compounds that could prevent activation of latent HIV was reported at the National […] (NCDDG)/AIDS by P. Feorino, S. T. Butera, T. M. Folks, and R. F. Schinazi, San Diego, Calif., Nov. 3-7, 1991. […] The expression of CD4+ on the cell surface and the activity of reverse transcriptase are used as markers for quantitating viral expression. Alternatively, other HIV markers, such as protease activity, which are known to those of skill in the art can be used. OM-10.1 cells remain CD4^+ until viral activation and respond to tumor necrosis factor induction, and therefore, these cultures are used to conveniently and rapidly examine pharmacologics for an ability to prevent CD4^+ down modulation (decrease in expression of CD4^+ on the cell surface) and HIV-1 expression.
Example 1 was performed as described by Butera ST, et al., J. Virol. 1991;65:4645-4653. Test compounds were first dissolved in 100% DMSO to the indicated stock concentrations below in Table I. The stock solution was then diluted in tissue culture starting at 1:100(10/-2) and proceeding on as indicated.
OM-10.1 cells were then pretreated for 4 hours with the test compounds prior to TNF-α induction. TNF-α was added at 20 U/ml and induced cells were examined at 24 hours for evidence of surface CD4 down-modulation, as an indication of viral activation. Cells were also harvested after 24 hours of TNF-α induction for drug toxicity, being labeled with ^3 H thymidine during the final 18 hours in culture. At […], cell-free culture supernatant was collected for reverse transcriptase determination, as a further verification of the extent of HIV-1 activation. CD4 surface staining for flow cytometry and reverse transcriptase analysis were performed as described.

In the case of `Cc1cn([C@H]2C[C@H](F)[C@@H](CO)O2)c(=O)[nH]c1=O` [3'-fluoro-3'-deoxythymidine (FLT), 3'-fluoro-3'-deoxythymidine], the “inhibition of the activation of HIV-1” value in test [1] is listed as “modest inhibitors of the activation of HIV-1”.
As for `CCCCCCCCCCCCCC(=O)O[C@@H]1[C@@H](C)[C@@]2(O)[C@@H](C=C(CO)C[C@]3(O)C(=O)C(C)=C[C@@H]23)[C@@H]2C(C)(C)[C@]12OC(C)=O` [12-O-tetradecanoyl-phorbol-13-acetate], the “CD4 down regulation and viral expression” value in the test with HIV-infected cells is “mediates CD4 down regulation and viral expression in HIV-infected cells”.
Consider `COc1ccc2c(c1)c(OC(C)C)c(C(N)=O)[s+]2[O-]` (stereo not drawn) [Test Compound B, 5-methoxy-3-(1-methylethoxy)benzothiophene-2-carboxamide-, 1-oxide], for which the “percent CD4-positive cells” value amounted to 5.3% in the test with OM-10.1 cells (0.5 μM, 24 hours); 20.6% with OM-10.1 cells (0.5 μM, 48 hours); 47.9% with OM-10.1 cells (0.5 μM, 72 hours); 75.1% in the test with OM-10.1 cells (0.5 μM, 96 hours); 4.0% in the test on OM-10.1 cells (0.5 μM, T-0 (after 24 hours TNF-α, before compound)); 89.0% in the test with OM-10.1 cells (0.5 μM, T-24 (baseline, before TNF-α and compound)). In addition, the “percent CD4-positive cells” value in the test with OM-10.1 cells (10 μM, 24 hours) was 33.5%; in the test with OM-10.1 cells (10 μM, 48 hours) it was 96.5%; in the test with OM-10.1 cells (10 μM, 72 hours), 97.6%; with OM-10.1 cells (10 μM, 96 hours), 98.7%; in the test with OM-10.1 cells (10 μM, T-0 (after 24 hours TNF-α, before compound)) it was 4.0%; with OM-10.1 cells (10 μM, T-24 (baseline, before TNF-α and compound)) it was 89.0%. Also, in test [2] (Human immunodeficiency virus 1, dilution 1:10 6 (A 19.5 nM; B 35.0 nM), TNF-α 20 U/ml, read-out: percent inhibition of the reverse transcriptase activity), the inhibition at 0.035 µM is 0%. Moreover, the inhibition at 17.75 µM in test [2] (Human immunodeficiency virus 1, dilution 1:2000 (A 10.0 μM; B 17.75 μM), TNF-α 20 U/ml, read-out: percent inhibition of the reverse transcriptase activity) came to 72.9%. Also, in test [2] (Human immunodeficiency virus 1, dilution 1:4000 (A 5.0 μM; B 8.88 μM), TNF-α 20 U/ml, read-out: percent inhibition of the reverse transcriptase activity), the inhibition at 8.88 µM came to 44%. In test [2] (Human immunodeficiency virus 1, dilution 1:8000 (A 2.5 μM; B 4.44 μM), TNF-α 20 U/ml, read-out: percent inhibition of the reverse transcriptase activity), the inhibition at 4.44 µM was found to be 26.4%. Moreover, the inhibition at 2.22 µM in test [2] (Human immunodeficiency virus 1, dilution 1:16,000 (A 1.25 μM; B 2.22 μM), TNF-α 20 U/ml, read-out: percent inhibition of the reverse transcriptase activity) is 18.2%. The inhibition at 1.11 µM in test [2] (Human immunodeficiency virus 1, dilution 1:32,000 (A 0.62 μM; B 1.11 μM), TNF-α 20 U/ml, read-out: percent inhibition of the reverse transcriptase activity) came to 19.6%. The inhibition at 0.55 µM in test [2] (Human immunodeficiency virus 1, dilution 1:64,000 (A 0.31 μM; B 0.55 μM), TNF-α 20 U/ml, read-out: percent inhibition of the reverse transcriptase activity) is 0.68%. The inhibition at 0.28 µM in test [2] (Human immunodeficiency virus 1, dilution 1:128,000 (A 0.16 μM; B 0.28 μM), TNF-α 20 U/ml, read-out: percent inhibition of the reverse transcriptase activity) worked out at 3.67%. In addition, in test [2] (Human immunodeficiency virus 1, dilution 1:256,000 (A 78.0 nM; B 0.14 μM), TNF-α 20 U/ml, read-out: percent inhibition of the reverse transcriptase activity), the inhibition at 0.14 µM turned out to be 11.5%. Besides, the inhibition at 0.07 µM in test [2] (Human immunodeficiency virus 1, dilution 1:512,000 (A 39.0 nM; B 70.0 nM), TNF-α 20 U/ml, read-out: percent inhibition of the reverse transcriptase activity) amounted to 1.55%. Further, the “anti-induction activity in the OM-10.1 cell system” value in test [2] (TNF-α induced) is “appeared to have anti-induction activity”. Moreover, the “inhibition of HIV-1 activation” value in test [2] (concentrations between 10 and 1 μM) is given as “effective at substantially inhibiting HIV-1 activation”. In addition, the “mean reverse transcriptase cpm values” was 30,025 cpm in test [2] (dilution 1:10 6 (A 19.5 nM; B 35.0 nM), TNF-α 20 U/ml); 7,725 cpm in test [2] (dilution 1:2000 (A 10.0 μM; B 17.75 μM), TNF-α 20 U/ml); 15,984 cpm in test [2] (dilution 1:4000 (A 5.0 μM; B 8.88 μM), TNF-α 20 U/ml); 21,009 cpm in test [2] (dilution 1:8000 (A […]; B 4.44 μM), TNF-α 20 U/ml); 23,336 cpm in test [2] (dilution 1:16,000 (A 1.25 μM; B 2.22 μM), TNF-α 20 U/ml); 22,931 cpm in test [2] (dilution 1:32,000 (A 0.62 μM; B 1.11 μM), TNF-α 20 U/ml). In addition, the “mean reverse transcriptase cpm values” is recorded as 28,334 cpm in test [2] (dilution 1:64,000 (A 0.31 μM; B 0.55 μM), TNF-α 20 U/ml); 27,480 cpm in test [2] (dilution 1:128,000 (A 0.16 μM; B 0.28 μM), TNF-α 20 U/ml); 25,257 cpm in test [2] (dilution 1:256,000 (A 78.0 nM; B 0.14 μM), TNF-α 20 U/ml); 28,085 cpm in test [2] (dilution 1:512,000 (A 39.0 nM; B 70.0 nM), TNF-α 20 U/ml). The “stimulation index (SI) value of the reverse transcriptase activity” value in test [2] (dilution 1:10 6 (A 19.5 nM; B 35.0 nM)) was 8.28; in test [2] (dilution 1:2000 (A 10.0 μM; B 17.75 μM)) it was 2.13; in test [2] (dilution 1:4000 (A 5.0 μM; B 8.88 μM)) it was 4.41; in test [2] (dilution 1:8000 (A […]; B 4.44 μM)), 5.80; in test [2] (dilution 1:16,000 (A 1.25 μM; B 2.22 μM)), 6.44; in test [2] (dilution 1:32,000 (A 0.62 μM; B 1.11 μM)), 6.33. The “stimulation index (SI) value of the reverse transcriptase activity” value in test [2] (dilution 1:64,000 (A 0.31 μM; B 0.55 μM)) stood at 7.82; in test [2] (dilution 1:128,000 (A 0.16 μM; B 0.28 μM)), 7.58; in test [2] (dilution 1:256,000 (A 78.0 nM; B 0.14 μM)) it was 6.97; in test [2] (dilution 1:512,000 (A 39.0 nM; B 70.0 nM)), 7.75.
Take `CC(=O)N(O)CCCCCNC(=O)CCC(=O)N(O)CCCCCNC(=O)CCC(=O)N(O)CCCCCN` [desferrioxamine]: in test [1], the “inhibition of the activation of HIV-1” value is recorded as “modest inhibitors of the activation of HIV-1”.

B1: interferon Y: interferon Y (protein, UniProt P01579 24-161, looked up)
Interferon gamma: QDPYVKEAENLKKYFNAGHSDVADNGTLFLGILKNWKEESDRKIMQSQIVSFYFKLFKNFKDDQSIQKSVETIKEDMNVKFFNSNKKKRDDFEKLTNYSVTDLNVQRKAIHELIQVMAELSPAAKTGKRKRSQMLFRG
As for B1, in test [1], the “inhibition of the activation of HIV-1” value is given as “modest inhibitors of the activation of HIV-1”.

By inhibition is commonly meant the share of the control response that was lost under treatment.
